Structures can show the parent of a compound that is named as a salt.
Experiments:
Bcl-2 protein = Bcl-2 protein (histag-Bcl-2, UniProtKB P10415) (Homo sapiens (Human), UniProt P10415); test: Inhibition of Bcl-2 by the fluorescence polarisation technique; assay type: binding; conditions: incubation for 2 hours, read-out: IC50 (nM) Bcl-2 FP
Method: The fluorescence polarisation tests were carried out on microplates (384 wells). The Bcl-2 protein, labelled (histag-Bcl-2 such that Bcl-2 corresponds to the UniProtKB® primary accession number: P10415), at a final concentration of 2.50×10^−8 M, is mixed with a fluorescent peptide (Fluorescein-[…]), at a final concentration of 1.00×10^−8 M in a buffer solution (Hepes 10 mM, NaCl 150 mM, Tween20 0.05%, pH 7.4), in the presence or absence of increasing concentrations of test compounds. After incubation for 2 hours, the fluorescence polarisation is measured.

[1] = tested on: RS4;11 leukaemia tumour line; test: In vitro cytotoxicity (Microculture Tetrazolium Assay); assay type: cell-based; conditions: Homo sapiens, RS4-11, 48 h, RS4;11 cells, exposed for 48 hours, cell viability; read-out: IC50 (nM) MTT RS4;11
Method: The cytotoxicity studies were carried out on the RS4;11 leukaemia tumour line.
The cells are distributed onto microplates and exposed to the test compounds for 48 hours.
The cell viability is then quantified by a colorimetric assay, the Microculture Tetrazolium Assay (Cancer Res., 1987, 47, 939-942).

Sequence of Bcl-2 protein (P10415 whole entry): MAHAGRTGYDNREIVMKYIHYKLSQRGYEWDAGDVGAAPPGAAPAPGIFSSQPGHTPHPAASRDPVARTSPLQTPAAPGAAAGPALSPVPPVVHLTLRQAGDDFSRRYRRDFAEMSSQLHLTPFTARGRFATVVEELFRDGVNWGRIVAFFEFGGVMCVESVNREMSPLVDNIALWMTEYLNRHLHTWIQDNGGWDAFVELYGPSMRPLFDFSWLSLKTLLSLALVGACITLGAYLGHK

SMILES | IC50 (Bcl-2 protein) [nM] | IC50 [1] [nM]
Cc1c(C(=O)N(c2ccc(O)cc2)c2cnc3c(ccn3C)c2)cc(-c2cc3c(cc2C(=O)N2Cc4ccccc4C[C@H]2CN2CCN(C)CC2)OCO3)n1C [Example 69, N-(4-Hydroxyphenyl)-1,2-dimethyl-5-(6-{[(3S)-3-[(4-methylpiperazin-1-yl)methyl]-3,4-dihydroisoquinolin-2(1H)-yl]carbonyl}-1,3-benzodioxol-5-yl)-N-(1-methyl-1H-pyrrolo[2,3-b]pyridin-5-yl)-1H-pyrrole-3-carboxamide hydrochloride] | 5.3 | 3.68
COc1cc(C(=O)N2Cc3ccccc3C[C@H]2C)c(-c2cc(C(=O)N(c3ccc(O)cc3)c3cnn(C)c3)c(C)n2C)cc1F [Example 62, 5-(5-Fluoro-4-methoxy-2-{[(3R)-3-methyl-3,4-dihydroisoquinolin-2(1H)-yl]carbonyl}phenyl)-N-(4-hydroxyphenyl)-1,2-dimethyl-N-(1-methyl-1H-pyrazol-4-yl)-1H-pyrrole-3-carboxamide] | 14.3 | 127
Cc1c(C(=O)N(c2ccc(O)cc2)c2cnn(C)c2)cc(-c2cc(F)c(O)cc2C(=O)N2Cc3ccccc3C[C@H]2C)n1C [Example 68, 5-(5-Fluoro-4-hydroxy-2-{[(3R)-3-methyl-3,4-dihydroisoquinolin-2(1H)-yl]carbonyl}phenyl)-N-(4-hydroxyphenyl)-1,2-dimethyl-N-(1-methyl-1H-pyrazol-4-yl)-1H-pyrrole-3-carboxamide] | 2.1 | 20.7
COc1ccc(-c2cc(C(=O)N(c3ccc(O)cc3)c3cc(C#N)n(C)c3C)c(C)n2C)c(C(=O)N2Cc3ccccc3C[C@H]2CN2CCOCC2)c1 [Example 417, N-(5-Cyano-1,2-dimethyl-1H-pyrrol-3-yl)-N-(4-hydroxyphenyl)-5-(4-methoxy-2-{[(3S)-3-(morpholin-4-ylmethyl)-3,4-dihydroisoquinolin-2(1H)-yl]carbonyl}phenyl)-1,2-dimethyl-1H-pyrrole-3-carboxamide hydrochloride] | 3 | 11
CN1CCN(C[C@@H]2Cc3ccccc3CN2C(=O)c2ccc(Cl)cc2-c2cc(C(=O)N(c3ccc(O)cc3)c3ccc4[nH]ccc4c3)cn2C)CC1 [Example 3, 5-(5-Chloro-2-{[(3S)-3-[(4-methylpiperazin-1-yl)methyl]-3,4-dihydroisoquinolin-2(1H)-yl]carbonyl}phenyl)-N-(4-hydroxyphenyl)-N-(1H-indol-5-yl)-1-methyl-1H-pyrrole-3-carboxamide] | 24.6 | 94.9
Cc1c(C(=O)N(C)c2ccc(O)cc2)cc(-c2cc(CNC(=O)NCc3ccccc3)ccc2C(=O)N2Cc3ccccc3C[C@H]2C)n1C [Example 51, 5-(5-{[(Benzylcarbamoyl)amino]methyl}-2-{[(3R)-3-methyl-3,4-dihydroisoquinolin-2(1H)-yl]carbonyl}phenyl)-N-(4-hydroxyphenyl)-N,1,2-trimethyl-1H-pyrrole-3-carboxamide] | 26.7 | 354
Cc1c(C(=O)N(c2ccc(O)cc2)c2cccc(C#N)c2)cc(-c2cc(Cl)ccc2C(=O)N2Cc3ccccc3C[C@H]2CN2CCOCC2)n1C [Example 398, 5-(5-Chloro-2-{[(3S)-3-(morpholin-4-ylmethyl)-3,4-dihydroisoquinolin-2(1H)-yl]carbonyl}phenyl)-N-(3-cyanophenyl)-N-(4-hydroxyphenyl)-1,2-dimethyl-1H-pyrrole-3-carboxamide hydrochloride] | 3.9 | 13.4
Cc1c(C(=O)N(c2ccc(O)cc2)c2cnn(C)c2)cc(-c2cc(Cl)ccc2C(=O)N2Cc3ccccc3C[C@H]2CN2CCN3CCOC[C@H]3C2)n1C [Example 116, 5-(5-Chloro-2-{[(3S)-3-[(9aR)-hexahydropyrazino[2,1-c][1,4]oxazin-8(1H)-ylmethyl]-3,4-dihydroisoquinolin-2(1H)-yl]carbonyl}phenyl)-N-(4-hydroxyphenyl)-1,2-dimethyl-N-(1-methyl-1H-pyrazol-4-yl)-1H-pyrrole-3-carboxamide dihydrochloride] | 3.4 | 47.8
CN1CCN(C[C@@H]2Cc3ccccc3CN2C(=O)c2ccc(Cl)cc2-c2cc(C(=O)N(c3ccc(O)cc3)c3ccc4c(ccn4C)c3)cn2C)CC1 [Example 5, 5-(5-Chloro-2-{[(3S)-3-[(4-methylpiperazin-1-yl)methyl]-3,4-dihydroisoquinolin-2(1H)-yl]carbonyl}phenyl)-N-(4-hydroxyphenyl)-1-methyl-N-(1-methyl-1H-indol-5-yl)-1H-pyrrole-3-carboxamide hydrochloride] | 21.2 | 44.8
Cc1c(C(=O)N(c2ccc(O)cc2)c2ccc(F)c(C#N)c2)cc(-c2cc(F)ccc2C(=O)N2Cc3ccccc3C[C@H]2CN2CCOCC2)n1C [Example 437, N-(3-Cyano-4-fluorophenyl)-5-(5-fluoro-2-{[(3S)-3-(morpholin-4-ylmethyl)-3,4-dihydroisoquinolin-2(1H)-yl]carbonyl}phenyl)-N-(4-hydroxyphenyl)-1,2-dimethyl-1H-pyrrole-3-carboxamide hydrochloride] | 4.4 | 70.5
Cc1c(C(=O)N(c2ccccc2)c2ccc(O)cc2)cc(-c2cc(F)ccc2C(=O)N2Cc3ccccc3C[C@H]2CN2CCOCC2)n1C [Example 10, 5-(5-Fluoro-2-{[(3S)-3-(morpholin-4-ylmethyl)-3,4-dihydroisoquinolin-2(1H)-yl]carbonyl}phenyl)-N-(4-hydroxyphenyl)-1,2-dimethyl-N-phenyl-1H-pyrrole-3-carboxamide hydrochloride] | 16.2 | 205
Cc1c(C(=O)N(c2cnc3c(ccn3C)c2)c2ccc(O)cn2)cc(-c2cc(Cl)ccc2C(=O)N2Cc3ccccc3C[C@H]2CN2CCOCC2)n1C [Example 464, 5-(5-Chloro-2-{[(3S)-3-(morpholin-4-ylmethyl)-3,4-dihydroisoquinolin-2(1H)-yl]carbonyl}phenyl)-N-(5-hydroxypyridin-2-yl)-1,2-dimethyl-N-(1-methyl-1H-pyrrolo[2,3-b]pyridin-5-yl)-1H-pyrrole-3-carboxamide dihydrochloride] | 36.6 | 723
Cc1c(C(=O)N(c2ccc(O)cc2)c2cnccn2)cc(-c2cc(Cl)ccc2C(=O)N2Cc3ccccc3C[C@H]2CN2CCOCC2)n1C [Example 438, 5-(5-Chloro-2-{[(3S)-3-(morpholin-4-ylmethyl)-3,4-dihydroisoquinolin-2(1H)-yl]carbonyl}phenyl)-N-(4-hydroxyphenyl)-1,2-dimethyl-N-(pyrazin-2-yl)-1H-pyrrole-3-carboxamide hydrochloride] | 11.3 | 379
Cc1c(C(=O)N(c2ccc(O)cc2)c2cnn(C)c2)cc(-c2cc3c(cc2C(=O)N2Cc4ccccc4C[C@H]2C)OCO3)n1CCN1CCOCC1 [Example 96, N-(4-Hydroxyphenyl)-2-methyl-5-(6-{[(3R)-3-methyl-3,4-dihydroisoquinolin-2(1H)-yl]carbonyl}-1,3-benzodioxol-5-yl)-N-(1-methyl-1H-pyrazol-4-yl)-1-[2-(morpholin-4-yl)ethyl]-1H-pyrrole-3-carboxamide hydrochloride] | 13.5 | 161
Cc1c(C(=O)N(c2ccc(O)cc2)c2ccc3c(cnn3C)c2)cc(-c2cc(F)ccc2C(=O)N2Cc3ccccc3C[C@H]2CN2CCOCC2)n1C [Example 12, 5-(5-Fluoro-2-{[(3S)-3-(morpholin-4-ylmethyl)-3,4-dihydroisoquinolin-2(1H)-yl]carbonyl}phenyl)-N-(4-hydroxyphenyl)-1,2-dimethyl-N-(1-methyl-1H-indazol-5-yl)-1H-pyrrole-3-carboxamide hydrochloride] | 5.5 | 39.6
Cc1c(N(C(=O)c2cc(-c3cc(Cl)ccc3C(=O)N3Cc4ccccc4C[C@H]3CCCN3CCOCC3)n(C)c2C)c2ccc(O)cc2)cc(C#N)n1C [Example 412, 5-(5-Chloro-2-{[(3R)-3-[3-(morpholin-4-yl)propyl]-3,4-dihydroisoquinolin-2(1H)-yl]carbonyl}phenyl)-N-(5-cyano-1,2-dimethyl-1H-pyrrol-3-yl)-N-(4-hydroxyphenyl)-1,2-dimethyl-1H-pyrrole-3-carboxamide hydrochloride] | 3.1 | 0.398
Cc1c(N(C(=O)c2cc(-c3cc(Cl)ccc3C(=O)N3Cc4ccccc4C[C@H]3CN3CCOCC3)n(C)c2C)c2ccc(O)cc2)cnn1C [Example 432, 5-(5-Chloro-2-{[(3S)-3-(morpholin-4-ylmethyl)-3,4-dihydroisoquinolin-2(1H)-yl]carbonyl}phenyl)-N-(1,5-dimethyl-1H-pyrazol-4-yl)-N-(4-hydroxyphenyl)-1,2-dimethyl-1H-pyrrole-3-carboxamide hydrochloride] | 3.4 | 76.6
CNCCn1c(-c2cc3c(cc2C(=O)N2Cc4ccccc4C[C@H]2C)OCO3)cc(C(=O)N(c2ccc(O)cc2)c2cnn(C)c2)c1C [Example 26, N-(4-Hydroxyphenyl)-2-methyl-1-[2-(methylamino)ethyl]-5-(6-{[(3R)-3-methyl-3,4-dihydroisoquinolin-2(1H)-yl]carbonyl}-1,3-benzodioxol-5-yl)-N-(1-methyl-1H-pyrazol-4-yl)-1H-pyrrole-3-carboxamide hydrochloride] | 4.1 | 541

From patent US9108983B2, “Pyrrole compounds, a process for their preparation and pharmaceutical compositions containing them” (LES LABORATOIRES SERVIER, priority 2013, dated 2015)
